{"source": "patent US20250302974A1", "about": "“LECTIN-DRUG CONJUGATES” (UNICHEM LABORATORIES LIMITED, priority 2021, published 2025)", "key": {"MG-63 cells": {"system": "MG-63 cells", "assay": "MTT cytotoxicity assay, MG-63 bone", "type": "cell-based", "details": "Homo sapiens, MG-63, 48 h", "method": "(§1) The Untreated cells were used as Control. […] Cells were incubated for 3 h at 37° C. The supernatant was aspirated.\n(§2) The % Cytotoxicity was calculated using the formula: […]\n(§3) Selectivity Index was calculated using the formula:\n(§4) SI=IC50 in Normal cell/IC50 in cancer cell."}, "AGS cells": {"system": "AGS cells", "assay": "MTT cytotoxicity assay, AGS stomach", "type": "cell-based", "details": "Homo sapiens, 48 h", "method": "as §1, §2, §3, §4"}, "PA-1 cells": {"system": "PA-1 cells", "assay": "MTT cytotoxicity assay, PA-1 ovary", "type": "cell-based", "details": "Homo sapiens", "method": "as §1, §2, §3, §4"}, "MDA-MB-231 cells": {"system": "MDA-MB-231 cells", "assay": "MTT cytotoxicity assay, MDA-MB-231 breast", "type": "cell-based", "details": "Homo sapiens", "method": "as §1, §2, §3, §4"}, "PBMC": {"system": "PBMC", "assay": "MTT cytotoxicity assay, PBMC normal", "type": "cell-based", "details": "48 h", "method": "as §1, §2, §3, §4"}, "T24 cells": {"system": "T24 cells", "assay": "MTT cytotoxicity assay, T24 bladder", "type": "cell-based", "details": "Homo sapiens, T-24", "method": "as §1, §2, §3, §4"}, "T24 Bladder": {"system": "T24 Bladder", "assay": "Cytotoxic effect by MTT assay, 48 h", "details": "48 h", "how_it_was_run": "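MTT read-out, A540 nm, formazan in DMSO. Cpd range 0.0001–10 μM; dox control 0.1–100 μM; untreated = reference.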"}, "MDA-MB-231 Breast": {"system": "MDA-MB-231 Breast", "assay": "Cytotoxic effect by MTT assay, 48 h", "details": "read-out: IC50 Values; MDA-MB-231 Breast, after 48 h of treatment"}, "HT29 cells": {"system": "HT29 cells", "assay": "MTT cytotoxicity assay, HT29 colon", "type": "cell-based", "details": "Homo sapiens, HT-29", "method": "as §1, §2, §3, §4"}, "A549 cells": {"system": "A549 cells", "assay": "MTT cytotoxicity assay, A549 lungs", "type": "cell-based", "details": "Homo sapiens", "method": "as §1, §2, §3, §4"}}, "note": "Square brackets hold non-standard residues; d marks the D form. Peptide text beside a SMILES is read from it. * marks the point of attachment. Dolaproine = CO[C@@H]([C@@H]1CCCN1)[C@@H](C)C(=O)O; Dil = CC[C@H](C)[C@H](NC)[C@@H](CC(=O)O)OC; X1 = C[C@@H](N*)[C@@H](O)c1ccccc1; NMeV = CN[C@H](C(=O)O)C(C)C", "data": [{"smiles": "CC[C@H](C)[C@@H]([C@@H](CC(=O)N1CCC[C@H]1[C@H](OC)[C@@H](C)C(=O)N[C@H](C)[C@@H](O)c1ccccc1)OC)N(C)C(=O)[C@@H](NC(=O)[C@@H](NC)C(C)C)C(C)C", "note": "[MMAE, monomethyl auristatin E] (H-[NMeV]V[Dil][Dolaproine]-X1)", "values": [{"measurement": "IC50", "setting": "MG-63 cells", "value": 0.1, "unit": "nM"}, {"measurement": "cytotoxicity at 0.0001 µM", "setting": "AGS cells; 0.0001 μm, read-out: Percent cytotoxicity wrt control", "value": 30.9, "unit": "%"}, {"measurement": "cytotoxicity at 0.001 µM", "setting": "AGS cells; 0.001 μm, read-out: Percent cytotoxicity wrt control", "value": 31.7, "unit": "%"}, {"measurement": "cytotoxicity at 0.01 µM", "setting": "AGS cells; 0.01 μm, read-out: Percent cytotoxicity wrt control", "value": 32.6, "unit": "%"}, {"measurement": "cytotoxicity at 0.1 µM", "setting": "AGS cells; 0.1 μm, read-out: Percent cytotoxicity wrt control", "value": 48.2, "unit": "%"}, {"measurement": "cytotoxicity at 1 µM", "setting": "AGS cells; 1 μm, read-out: Percent cytotoxicity wrt control", "value": 48.4, "unit": "%"}, {"measurement": "cytotoxicity at 10 µM", "setting": "AGS cells; 10 μm, read-out: Percent cytotoxicity wrt control", "value": 54.4, "unit": "%"}, {"measurement": "IC50", "setting": "AGS cells", "value": 1540, "unit": "nM"}, {"measurement": "IC50", "setting": "PA-1 cells; PA-1, 48 h", "value": 30.1, "unit": "nM"}, {"measurement": "cytotoxicity at 0.0001 µM", "setting": "PA-1 cells; PA-1, 0.0001 μm, 48 h, read-out: Percent cytotoxicity wrt control", "value": 13.4, "unit": "%"}, {"measurement": "cytotoxicity at 0.001 µM", "setting": "PA-1 cells; PA-1, 0.001 μm, 48 h, read-out: Percent cytotoxicity wrt control", "value": 57.5, "unit": "%"}, {"measurement": "cytotoxicity at 0.01 µM", "setting": "PA-1 cells; PA-1, 0.01 μm, 48 h, read-out: Percent cytotoxicity wrt control", "value": 50, "unit": "%"}, {"measurement": "cytotoxicity at 0.1 µM", "setting": "PA-1 cells; PA-1, 0.1 μm, 48 h, read-out: Percent cytotoxicity wrt control", "value": 57.5, "unit": "%"}, {"measurement": "cytotoxicity at 1 µM", "setting": "PA-1 cells; PA-1, 1 μm, 48 h, read-out: Percent cytotoxicity wrt control", "value": 61.7, "unit": "%"}, {"measurement": "cytotoxicity at 10 µM", "setting": "PA-1 cells; PA-1, 10 μm, 48 h, read-out: Percent cytotoxicity wrt control", "value": 58.3, "unit": "%"}, {"measurement": "IC50", "setting": "MDA-MB-231 cells; MDA-MB-231, 48 h", "value": "> 10000", "unit": "nM"}, {"measurement": "cytotoxicity at 0.0001 µM", "setting": "MDA-MB-231 cells; MDA-MB-231, 0.0001 μm, 48 h, read-out: Percent cytotoxicity wrt control", "value": 11.3, "unit": "%"}, {"measurement": "cytotoxicity at 0.001 µM", "setting": "MDA-MB-231 cells; MDA-MB-231, 0.001 μm, 48 h, read-out: Percent cytotoxicity wrt control", "value": 13.3, "unit": "%"}, {"measurement": "cytotoxicity at 0.01 µM", "setting": "MDA-MB-231 cells; MDA-MB-231, 0.01 μm, 48 h, read-out: Percent cytotoxicity wrt control", "value": 28.9, "unit": "%"}, {"measurement": "cytotoxicity at 0.1 µM", "setting": "MDA-MB-231 cells; MDA-MB-231, 0.1 μm, 48 h, read-out: Percent cytotoxicity wrt control", "value": 23.8, "unit": "%"}, {"measurement": "cytotoxicity at 1 µM", "setting": "MDA-MB-231 cells; MDA-MB-231, 1 μm, 48 h, read-out: Percent cytotoxicity wrt control", "value": 16.8, "unit": "%"}, {"measurement": "cytotoxicity at 10 µM", "setting": "MDA-MB-231 cells; MDA-MB-231, 10 μm, 48 h, read-out: Percent cytotoxicity wrt control", "value": 26.4, "unit": "%"}, {"measurement": "IC50", "setting": "PBMC; PBMC (normal)", "value": "> 10000", "unit": "nM"}, {"measurement": "cytotoxicity at 0.0001 µM", "setting": "PBMC; PBMC, 0.0001 μm, read-out: Percent cytotoxicity wrt control", "value": -2.7, "unit": "%"}, {"measurement": "cytotoxicity at 0.0001 µM", "setting": "T24 cells; T24, 0.0001 μm, 48 h, read-out: Percent cytotoxicity wrt control", "value": 51.8, "unit": "%"}, {"measurement": "cytotoxicity at 0.001 µM", "setting": "T24 cells; T24, 0.001 μm, 48 h, read-out: Percent cytotoxicity wrt control", "value": 51.1, "unit": "%"}, {"measurement": "cytotoxicity at 0.01 µM", "setting": "T24 cells; T24, 0.01 μm, 48 h, read-out: Percent cytotoxicity wrt control", "value": 46.1, "unit": "%"}, {"measurement": "cytotoxicity at 0.1 µM", "setting": "T24 cells; T24, 0.1 μm, 48 h, read-out: Percent cytotoxicity wrt control", "value": 44.4, "unit": "%"}, {"measurement": "cytotoxicity at 1 µM", "setting": "T24 cells; T24, 1 μm, 48 h, read-out: Percent cytotoxicity wrt control", "value": 44.4, "unit": "%"}, {"measurement": "cytotoxicity at 10 µM", "setting": "T24 cells; T24, 10 μm, 48 h, read-out: Percent cytotoxicity wrt control", "value": 53.2, "unit": "%"}, {"measurement": "IC50", "setting": "T24 cells; T24, 48 h", "value": 0.01, "unit": "nM"}, {"measurement": "Percent cytotoxicity wrt control", "setting": "T24 Bladder; T24, 0.0001 μM", "value": 51.8, "unit": "%"}, {"measurement": "Percent cytotoxicity wrt control", "setting": "T24 Bladder; T24, 0.001 μM", "value": 51.1, "unit": "%"}, {"measurement": "Percent cytotoxicity wrt control", "setting": "T24 Bladder; T24, 0.1 μM", "value": 44.4, "unit": "%"}, {"measurement": "Percent cytotoxicity wrt control", "setting": "T24 Bladder; T24, 1 μM", "value": 44.4, "unit": "%"}, {"measurement": "IC50", "setting": "MDA-MB-231 Breast", "value": "> 10000", "unit": "nM"}, {"measurement": "cytotoxicity at 0.0001 µM", "setting": "HT29 cells; HT29, 0.0001 μm, 48 h, read-out: Percent cytotoxicity wrt control", "value": 44.1, "unit": "%"}, {"measurement": "cytotoxicity at 0.001 µM", "setting": "HT29 cells; HT29, 0.001 μm, 48 h, read-out: Percent cytotoxicity wrt control", "value": 44.6, "unit": "%"}, {"measurement": "cytotoxicity at 0.01 µM", "setting": "HT29 cells; HT29, 0.01 μm, 48 h, read-out: Percent cytotoxicity wrt control", "value": 50.6, "unit": "%"}, {"measurement": "cytotoxicity at 0.1 µM", "setting": "HT29 cells; HT29, 0.1 μm, 48 h, read-out: Percent cytotoxicity wrt control", "value": 50.4, "unit": "%"}, {"measurement": "cytotoxicity at 1 µM", "setting": "HT29 cells; HT29, 1 μm, 48 h, read-out: Percent cytotoxicity wrt control", "value": 51.9, "unit": "%"}, {"measurement": "cytotoxicity at 10 µM", "setting": "HT29 cells; HT29, 10 μm, 48 h, read-out: Percent cytotoxicity wrt control", "value": 55.9, "unit": "%"}, {"measurement": "IC50", "setting": "HT29 cells; HT29, 48 h", "value": 50, "unit": "nM"}, {"measurement": "IC50", "setting": "A549 cells; A549, 48 h", "value": 10, "unit": "nM"}, {"measurement": "cytotoxicity at 0.0001 µM", "setting": "A549 cells; A549, 0.0001 μm, 48 h, read-out: Percent cytotoxicity wrt control", "value": 27.9, "unit": "%"}, {"measurement": "cytotoxicity at 0.001 µM", "setting": "A549 cells; A549, 0.001 μm, 48 h, read-out: Percent cytotoxicity wrt control", "value": 39.3, "unit": "%"}, {"measurement": "cytotoxicity at 0.01 µM", "setting": "A549 cells; A549, 0.01 μm, 48 h, read-out: Percent cytotoxicity wrt control", "value": 43.5, "unit": "%"}, {"measurement": "cytotoxicity at 0.1 µM", "setting": "A549 cells; A549, 0.1 μm, 48 h, read-out: Percent cytotoxicity wrt control", "value": 58.8, "unit": "%"}, {"measurement": "cytotoxicity at 1 µM", "setting": "A549 cells; A549, 1 μm, 48 h, read-out: Percent cytotoxicity wrt control", "value": 83.6, "unit": "%"}, {"measurement": "cytotoxicity at 10 µM", "setting": "A549 cells; A549, 10 μm, 48 h, read-out: Percent cytotoxicity wrt control", "value": 75.8, "unit": "%"}]}]}
